Assay results as given in US9468632B2, “Methods and compositions for targeting cancer stem cells” (The Regents of the University of Michigan, priority 2012, dated 2016).
Positions count from the first letter of the chain named.

Assays:
[1] = test system: cellular oxygen consumption; assay: SeaHorse cellular metabolism studies; assay type: cell-based
Method: UCP1 and UCP3 proteins play a critical role in cellular metabolism. The impact of UM673 on cellular metabolism was evaluated.

Oct4, and Sox2 = assay: qRT-PCR of stem cell genes; assay type: cell-based
Method: (§1) ALDH1A isoforms are the primary members of the ‘retinaldehyde’ subgroup of aldehyde dehydrogenases. Retinaldehydes play a primary role in the biosynthesis of retinoic acid and thereby regulate retinoic acid mediated transcription. Retinoic acid transcription changes in cells treated with UM673 were assayed. […] 80× induction of the mitochondrial uncoupling proteins UCP1 and UCP3 was observed (FIG. 7B).

[2] = test system: normal human ovarian surface epithelial cells; details: 72 h
Method: (§7) 7500 of HOSE, MSC, and OVCAR8 cells were plated on a 96-well plate and rested for 24 hours. They were then treated with incremental doses of 673 for 72 hours. They were then analyzed according to the Vybrant® MTT Cell Proliferation Assay Kit (Invitrogen).
(§8) The toxicity of these compounds versus normal human ovarian surface epithelial cells and healthy adipose derived mesenchymal stem cells was assayed.

[3] = test system: isolated CD133+ cancer stem cells initiated tumors; assay: CD133+ cancer stem cell initiated tumors, tumor growth; assay type: in vivo, mice; details: single agent
Method: (§2) 6-8 week old nude female mice were purchased from Charles River Laboratories. All xenograft experiments were performed with approval of the University Committee on Use and Care of Animals of the University of Michigan. To generate tumors, 7.5×10^4 unsorted A2780 cells or 7500 CD133+ sorted A2780 cells were combined with 100 μl of DPBS and 100 μl of Matrigel (BD Biosciences), and then implanted subcutaneously into bilateral axillae of each mouse. 3 days after inoculation with tumors, mice were given an intra-peritoneal injection of (1) control DMSO 40 μl, (2) Cisplatin 250 μg/ml, (3) UM #673 10 μM, or (4) Cisplatin plus UM #673 (n=9 mice per treatment group). Tumor growth was measured using calipers, and tumor volume was calculated based on the modified ellipsoid formula (L×W×W/2), where L is the length and W is the width of the tumor. The mice were euthanized when tumors reached 1.5 to 2 cm^3 and animal safety euthanasia guidelines were met. Intraperitoneal tumors were generated using 5×10^6 OVCAR8 in […] of PBS and injected I.P. 3 days after inoculation, mice were given intra-peritoneal injection of Cisplatin or Cisplatin plus UM #673.
The impact of UM673 as a single agent was evaluated. NOD/SCID mice were inoculated with 1×10^5 unsorted A2780 cells and treatment was initiated three days after tumor inoculation with either vehicle control or UM #673. […]

[4] = test system: pancreatic cancer cell lines and breast cancer cell lines (ASPC, PANC1, MCF7); assay: MTT toxicity screen, pancreatic and breast cancer cell lines; assay type: cell-based
Method: A. MTT assay of cytotoxicity of indicated compounds at increasing doses 72 hours after treatment of ovarian cancer cell. B. MTT assay for pancreatic (ASPC and PANC1) and breast cancer (MCF7) cell lines. C. MTT assays of 673 for normal cells (HOSE and MSC) and ovarian cancer (OvCAR8) controls.
(§3) TD50 ranged from 12-50 uM.

mitochondrial metabolism = assay: LCMS of cellular metabolites; assay type: cell-based
UCP1 and UCP3 = assay: qRT-PCR of necrosis associated genes; assay type: cell-based
Method: as §1

OVCAR8 cells = assay: Tumor sphere forming assay, OVCAR8; assay type: cell-based, human
Method: (§4) Tumor associated ascites cells were isolated by centrifugation and treated with ACK lysis buffer (Fischer Scientific). 5000 cells were placed in each well of the 6-well ultra-low adherence plates (Corning, Acton, Mass., USA) with 3 ml of supplemented MEBM (Lonza). After 24 hours, cells were treated with either media alone or UM #673. Media was added every 3-4 days, and all tumor sphere counts were done at 2 weeks. Alternatively, sphere assays were also performed with cancer cell lines A2780 and OVCAR8. Cells in culture were trypsinized and 2000 cells were either directly placed or FACS isolated for CD133+ and CD133− cells before plating in wells of ultra-low adherence plates. Images of spheres were photographed using the Olympus Microsuite Biological suite Software.
(§5) In order to further characterize UM #673 activity targeting OvCSC, a functional CSC assay was performed. Tumor sphere forming assays were performed with both FACS isolated CD133+A2780 cells and OVCAR8 cells (a cell line with >90% CD133 expression). […] This assay was repeated using primary human ovarian cancer associated ascites cell from three patients. Treatment with 673 was associated with an average of 7.3 fold (range 4-50) reduction in the number of spheres formed (FIG. 4A).

[5] = test system: Annexin-V staining (apoptosis); assay: PI/Annexin-V FACS analysis; assay type: cell-based
Method: PI/Annexin-V FACS analysis of UM673 treated cells was performed to determine if cells were undergoing apoptosis.

A2780 = assay: MTT assay, A2780 viability; assay type: cell-based, human
Method: as §3

[6] = test system: primary human ovarian cancer associated ascites cell; assay: Tumor sphere forming assay, primary ascites cells; assay type: cell-based; details: three patients, range 4-50
Method: as §4, §5

[7] = test system: primary human tumor xenografts; assay: Primary human tumor xenografts from chemotherapy refractory ovarian cancer; assay type: in vivo, mice
Excerpt: In order to confirm in vivo activity against primary ovarian cancers, primary human tumor xenografts were generated from a patient with chemotherapy refractory ovarian cancer. Xenografts were allowed to grow until they reached ˜500 mm^3, and then treatment with either vehicle, cisplatin or cisplatin and UM 673 was initiated. […] After discontinuation of therapy, tumor regrowth was observed after approximately 4 weeks (FIG. 5D).

[8] = test system: FACS isolated CD133+A2780 cells; assay: Tumor sphere forming assay, CD133+ A2780; assay type: cell-based, human; details: single treatment with 10 μM
Method: as §4, §5

[9] = test system: healthy adipose derived mesenchymal stem cells; details: human, 72 h
Method: as §7, §8

[10] = test system: in vitro treated, PI-/Annexin-FACS isolated live cells; assay: Tumor initiation capacity of in vitro treated live cells injected into mice; assay type: in vivo
Method: An important functional aspect of a cancer stem cell is the ability to initiate tumors with limited cell numbers. In order to determine if UM673 could impact tumor initiation, cells were treated in vitro with a single dose of UM673 alone or in combination with cisplatin. Cells were allowed to recover for three days and then PI(−)/Annexin(−) live cells were faxed isolated and injected into mice. 200, 1000, or 5000 cells from each treatment group (n=4-10/group) were injected.

CD133+ cells = assay: FACS isolated single cells in microfluidic culture, cell death; assay type: cell-based
Method: (§6) In order to determine if the loss of CD133 or ALDH expressing cells is due to downregulation/loss of enzyme function or due to cell death, FACS isolated CD133+ or ALDH+ cells were treated as single cells in microfluidic culture. 673 treatment was associated with the death of ˜93% of CD133+ cells and 65% death of ALDH+ cells (FIG. 1B).

ALDH+ cells = assay: as above; assay type: cell-based
Method: as §6

intracellular calcium = assay: Fluorescent analysis of intra-cellular calcium; assay type: cell-based
Method: Programmed cell necrosis is known to be linked with decreases in cellular ATP and an increase in intracellular calcium. […] Furthermore, reduction in CD 133 positive cells with UM 673 treatment could be partially abrogated by the calcium scavenging compound BAPTA (FIG. 6E). As program cell necrosis is known to be activated via the RIP kinases, the impact of the RIP kinase inhibitor necrostatin was evaluated.

[11] = test system: ovarian cancer cell lines including A2780, SKOV3, and OvCAR8; assay: MTT assay, ovarian cancer cell lines; assay type: cell-based, human; details: 72 hours, range over cell lines
Method: as §3

A2770 cells = assay: FACS analysis of CD133 and ALDH expressing cells; assay type: cell-based
all the ALDH1A isoforms = assay: In vitro enzymatic inhibition assays, text summary for ALDH1A isoforms; assay type: biochemical
[12] = test system: A2780 tumor cell xenografts; assay: A2780 tumor cell xenografts, tumor growth; assay type: in vivo, mice; details: unsorted A2780 cells, treatment from day 3
Method: as §2
The impact of UM673 as a single agent was evaluated. NOD/SCID mice were inoculated with 1×10^5 unsorted A2780 cells and treatment was initiated three days after tumor inoculation with either vehicle control or UM #673. […] This is consistent with other studies of CSC targeting agents.
The experiments were repeated in combination with cisplatin. In addition, xenografts from both whole cell line and FACS isolated CD133+ cells were treated.

ALDH1A3 = molecular target: T1, ALDH1A3 (Homo sapiens, UniProt P47895); assay: In vitro enzymatic inhibition assay, ALDH1A3; assay type: biochemical
T1 sequence (P47895 1-512): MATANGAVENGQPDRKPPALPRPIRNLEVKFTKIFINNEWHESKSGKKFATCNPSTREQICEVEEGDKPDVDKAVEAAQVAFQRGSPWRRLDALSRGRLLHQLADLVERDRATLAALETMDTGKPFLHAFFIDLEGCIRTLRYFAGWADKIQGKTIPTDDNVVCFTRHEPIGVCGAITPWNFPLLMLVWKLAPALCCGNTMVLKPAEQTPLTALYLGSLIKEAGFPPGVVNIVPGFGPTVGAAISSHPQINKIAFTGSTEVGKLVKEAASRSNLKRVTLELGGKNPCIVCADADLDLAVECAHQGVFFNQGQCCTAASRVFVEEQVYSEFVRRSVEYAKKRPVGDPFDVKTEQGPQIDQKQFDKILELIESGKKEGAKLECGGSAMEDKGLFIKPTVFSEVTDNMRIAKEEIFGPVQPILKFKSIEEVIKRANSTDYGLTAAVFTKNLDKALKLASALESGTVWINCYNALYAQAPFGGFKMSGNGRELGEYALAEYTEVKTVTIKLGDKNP

ALDH1A1 (S121) = molecular target: T2, ALDH1A1 (S121) (Homo sapiens, UniProt P00352, N121S); assay: In vitro enzymatic inhibition assay, ALDH1A1 (S121); assay type: biochemical
T2 sequence (P00352 1-501 N121S): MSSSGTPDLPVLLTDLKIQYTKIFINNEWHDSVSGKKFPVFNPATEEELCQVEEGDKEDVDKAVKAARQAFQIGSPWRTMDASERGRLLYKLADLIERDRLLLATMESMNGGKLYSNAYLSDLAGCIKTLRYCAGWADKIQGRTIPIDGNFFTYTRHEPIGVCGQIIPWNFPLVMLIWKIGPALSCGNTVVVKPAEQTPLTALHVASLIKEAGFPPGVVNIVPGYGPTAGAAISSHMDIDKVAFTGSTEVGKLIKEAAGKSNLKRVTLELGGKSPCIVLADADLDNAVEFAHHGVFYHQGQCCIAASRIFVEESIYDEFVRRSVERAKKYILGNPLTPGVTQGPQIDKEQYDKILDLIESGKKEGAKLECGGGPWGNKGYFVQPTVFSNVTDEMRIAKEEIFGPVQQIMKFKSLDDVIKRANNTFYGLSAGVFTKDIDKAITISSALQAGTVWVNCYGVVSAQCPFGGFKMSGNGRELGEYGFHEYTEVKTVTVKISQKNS

ALDH3A1 = ALDH3A1 (Homo sapiens, UniProt P30838); assay: In vitro enzymatic inhibition assay, ALDH3A1; assay type: biochemical
ALDH1A1 (WT) = molecular target: T3, ALDH1A1 (WT) (Homo sapiens, UniProt P00352); assay: In vitro enzymatic inhibition assay, ALDH1A1 (WT); assay type: biochemical; details: 2 min incub
T3 sequence (P00352 1-501): T2 sequence (P00352 1-501 N121S) with S121N

ALDH1A2 = molecular target: T4, ALDH1A2 (Homo sapiens, UniProt O94788); assay: In vitro enzymatic inhibition assay, ALDH1A2; assay type: biochemical
T4 sequence (O94788 1-518): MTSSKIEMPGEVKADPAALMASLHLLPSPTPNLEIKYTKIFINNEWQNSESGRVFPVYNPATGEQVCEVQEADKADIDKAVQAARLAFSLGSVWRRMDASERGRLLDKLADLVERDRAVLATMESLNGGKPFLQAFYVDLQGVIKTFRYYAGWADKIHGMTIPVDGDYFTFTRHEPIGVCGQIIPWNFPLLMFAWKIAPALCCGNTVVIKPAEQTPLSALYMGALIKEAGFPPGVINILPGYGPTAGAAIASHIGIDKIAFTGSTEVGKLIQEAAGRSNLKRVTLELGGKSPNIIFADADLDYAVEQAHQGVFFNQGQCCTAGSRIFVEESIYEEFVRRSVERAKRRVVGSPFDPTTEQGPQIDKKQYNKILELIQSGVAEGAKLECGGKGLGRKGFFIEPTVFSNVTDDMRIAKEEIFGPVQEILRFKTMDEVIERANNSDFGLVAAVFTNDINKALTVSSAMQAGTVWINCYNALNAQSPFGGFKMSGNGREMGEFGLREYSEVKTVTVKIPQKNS

ALDH3A1, sequence (P30838 whole entry): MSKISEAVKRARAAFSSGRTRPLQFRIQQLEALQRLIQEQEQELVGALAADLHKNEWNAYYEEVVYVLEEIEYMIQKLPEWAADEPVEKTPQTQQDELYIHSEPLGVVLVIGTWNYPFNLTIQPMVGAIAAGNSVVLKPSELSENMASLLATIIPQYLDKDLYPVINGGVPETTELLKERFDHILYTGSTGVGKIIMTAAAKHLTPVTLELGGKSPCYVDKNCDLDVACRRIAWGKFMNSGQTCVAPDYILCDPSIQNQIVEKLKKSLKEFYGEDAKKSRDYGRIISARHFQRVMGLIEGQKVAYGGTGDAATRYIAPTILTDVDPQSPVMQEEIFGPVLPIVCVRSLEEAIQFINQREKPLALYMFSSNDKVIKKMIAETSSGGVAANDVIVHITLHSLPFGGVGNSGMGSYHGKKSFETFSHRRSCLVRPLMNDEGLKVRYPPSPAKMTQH

## Cc1cc(N2Cc3ccccc3C2)ccc1C=O [UM673]
[1]
  cellular oxygen consumption: slow and steady decline
Oct4, and Sox2
  expression of stem cell factors Oct4 and Sox2: down regulated
[2]
  TD50: ~105 µM
[3]
  tumor growth: Greatest activity
[4]
  cytotoxicity versus bulk populations: variable modest cytotoxicity
Mitochondrial metabolism
  levels of citrate: marked decrease
UCP1 and UCP3
  induction of the mitochondrial uncoupling proteins UCP1 and UCP3: 80 ×
OVCAR8 cells
  decrease in sphere formation: 5.6 fold
  reduction total cell numbers: 3 fold
[5]
  Annexin-V staining: not associated with an increase in Annexin-V staining
A2780
  lowest dose with measurable effects on A2780 viability: 2.5 µM
[6]
  average reduction in the number of spheres formed: 7.3 fold
[7]; mouse, in vivo
  time to tumor regrowth after discontinuation of therapy: approximately 4 weeks
[7]; treatment started at ˜500 mm^3
  tumor growth: prevented tumor regrowth
[8]
  decrease in sphere number: 2.6 fold
  reduction in total cell number: ~8 fold
[9]
  TD50: ~105 µM
[10]; 200 cells injected
  tumor initiation (tumors/injections): 2/4
[10]; 1000 cells injected
  tumor initiation (tumors/injections): 4/4
[10]; 5000 cells injected
  tumor initiation (tumors/injections): 4/5
[10]; compared to untreated controls
  effect on tumor initiation capacity: neither cisplatin or UM673 affected tumor initiation
CD133+ cells
  death of CD133+ cells: ~93%
ALDH+ cells
  death of ALDH+ cells: 65%
Intracellular calcium
  increase in intracellular calcium: fourfold increase
[11]
  TD50: 12 to 50 µM
A2770 cells
  loss of ALDH+ and CD133+ cells: reductions in not only ALDH+ cells, but also CD133+ cells
All the ALDH1A isoforms
  IC50: < 0.23 µM
[12]
  tumor growth: statistically significant reduction in tumor growth
[12]; listed as UM 673
  tumor growth: modest restrictions in tumor growth

## DEAB [reference compound]
ALDH1A3
  IC50: > 20 µM
ALDH1A1 (S121)
  IC50: 1.49 ± 0.24 µM
ALDH3A1
  IC50: > 20 µM
ALDH1A1 (WT)
  IC50: 0.519 ± 0.075 µM
ALDH1A2
  IC50: > 20 µM
